Data reported in article PMC7745125 (Science (New York, N.y.), 2019).

What was measured:
[1] = target: T1, tyrosine decarboxylase (TyrDC) (Enterococcus faecalis, UniProt P0DTQ4); assay: enzyme kinetics of TyrDC in vitro; type: biochemical
T1 sequence (P0DTQ4 1-620): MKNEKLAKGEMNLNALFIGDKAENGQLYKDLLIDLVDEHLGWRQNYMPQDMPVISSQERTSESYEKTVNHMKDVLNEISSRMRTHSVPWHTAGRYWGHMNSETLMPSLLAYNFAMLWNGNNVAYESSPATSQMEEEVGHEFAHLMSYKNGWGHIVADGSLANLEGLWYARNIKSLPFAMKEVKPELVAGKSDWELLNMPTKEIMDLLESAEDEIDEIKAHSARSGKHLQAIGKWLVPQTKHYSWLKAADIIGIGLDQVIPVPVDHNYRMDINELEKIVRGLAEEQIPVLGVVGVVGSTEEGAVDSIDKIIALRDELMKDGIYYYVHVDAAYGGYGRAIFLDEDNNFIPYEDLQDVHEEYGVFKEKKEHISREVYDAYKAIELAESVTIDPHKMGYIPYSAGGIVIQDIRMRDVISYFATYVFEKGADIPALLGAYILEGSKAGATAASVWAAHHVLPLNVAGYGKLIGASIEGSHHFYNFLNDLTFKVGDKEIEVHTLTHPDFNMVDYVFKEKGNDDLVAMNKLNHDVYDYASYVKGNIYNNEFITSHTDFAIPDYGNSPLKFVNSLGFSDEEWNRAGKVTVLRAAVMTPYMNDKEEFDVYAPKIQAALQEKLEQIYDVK

[2] = target: T1, tyrosine decarboxylase (TyrDC)

Row | Km [2] [µM] | Structure (SMILES) | enzyme kinetics of TyrDC in vitro [1]
1 |  | N[C@@H](Cc1ccc(O)cc1)C(=O)O [L-tyrosine] | In vitro characterization of TyrDC revealed a fivefold higher catalytic efficiency toward L-tyrosine compared with L-dopa
2 | 1500 | N[C@@H](Cc1ccc(O)c(O)c1)C(=O)O [L-dopa] | 
